Source: patent US9155776B2, “Low frequency glatiramer acetate therapy” (Yeda Research & Development Co., Ltd., priority 2009, dated 2015)
Like-named read-outs stand apart in the source and are kept apart here.

What was measured:
[1] = test system: subjects with Relapsing-Remitting Multiple Sclerosis (RRMS)
Procedure: The study is designed to select three days a week for injection. Three injections are administered for every seven days and there must be at least one day between each injection.
Eligible subjects are randomized in a 2:1 ratio (40 mg:placebo) and assigned to one of the following three treatment arms: • 1. […] Matching placebo three times weekly (450 subjects)
During the PC phase, subjects are evaluated at study sites for a total of 7 scheduled visits at months: −1 (screening), 0 (baseline), 1, 3, 6, 9, and 12 (End of PC phase).
During the study, the following assessments are performed (regardless of the treatment assignment) at the specified time points: • Vital signs are measured at each study visit. • A physical examination is performed at months −1 (screening), 0 (baseline) 6, 12 (end of PC phase) and every 6 months thereafter. In addition, a physical examination will be performed at the termination visit of the OL phase. • The following safety clinical laboratory tests are performed: • Complete blood count (CBC) with differential—at all scheduled visits in the PC phase, and every 12 months thereafter. In addition this test will be performed at the termination visit of the OL phase. • Serum chemistry (including electrolytes, creatinine, urea and liver enzymes) and urinalysis—at all scheduled visits in the PC phase, and every 12 months thereafter. In addition this test will be performed at the termination visit of the OL phase. • Serum β-hCG in women of child-bearing potential is performed at months −1 (screening), 0 (baseline), 12 (end of PC phase), and every 12 months thereafter. In addition this test will be performed at the termination visit of the OL phase. • ECG is performed at months −1 (screening), 0 (baseline), 12 (end of PC phase), and every 12 months thereafter. In addition an ECG will be performed at the termination visit of the OL phase. • Chest X-ray is performed at month −1 (screening) if not performed within 6 months prior to screening visit. • Adverse Events (AEs) are monitored throughout the study. • Concomitant Medications are monitored throughout the study. • Neurological evaluations, including Neurostatus [Functional Systems (FS), Expanded Disability Status Scale (EDSS), Ambulation Index (AI)] are performed at months −1 (screening), 0 (baseline), 3, 6, 9, 12 (end of PC phase) and every 6 months thereafter. In addition, a neurological examination are performed at the termination visit of the OL phase. • The general health status is assessed by the EuroQoL (EQ5D) questionnaire at months 0 (baseline) and 12 (end of PC phase). • Additional quality of life parameters are assessed by the WPAI (Work Productivity and Activities Impairment) Questionnaire at month 0 (baseline), 3, 6, 9 and 12 (end of PC phase). • All subjects undergo MRI scans at months 0 (13-7 days prior to baseline visit), 6 and 12 (end of PC phase). Following the results of the PC phase, the Sponsor may decide to perform an MRI scan at the termination visit of the OL phase. • Relapses are confirmed/monitored throughout the study.
Route and Dosage Form: • Glatiramer Acetate 40 mg in 1 ml for subcutaneous injection in a pre-filled syringe (PFS), administered three times a week. • Matching placebo injection (mannitol in 1 ml WFI) for subcutaneous injection in a pre-filled syringe (PFS). Outcome Measures: Primary Outcome Measure: • The total number of confirmed relapses during the 12 month PC phase.

[2] = test system: MS patients; details: 20 mg/day subcutaneous (s.c.) dose; cited from earlier work
[3] = test system: patients who have experienced a clinically isolated syndrome (CIS); details: 20 mg daily s.c. injection; PCT/US2008/013146; cited from earlier work
[4] = test system: patients who have experienced a clinically isolated syndrome (CIS); details: three s.c. injections over a period of seven days with at least one day between every injection
[5] = test system: MS; details: controlled clinical trials; cited from earlier work
[6] = 40 mg s.c. three times weekly compared with 20 mg s.c. GA daily administration
[7] = 40 mg s.c. three times weekly vs placebo

## L-glutamic acid polymer with L-alanine, L-lysine, L-tyrosine, acetate (salt) [GA]
[1]; 40 mg s.c. three times weekly compared to the placebo group, RRMS subjects
  reduction of subject population annualized relapse rate: ≥ 30%
[1]; [6]
  increasing the proportion of relapse-free subjects during the placebo-controlled phase: at least as effective as 20 mg s.c. GA daily administration
  increasing the time to the first confirmed relapse during the placebo-controlled phase: at least as effective as 20 mg s.c. GA daily administration
  reducing the change from baseline to month 12 (end of placebo-controlled phase) in EDSS Score: at least as effective as 20 mg s.c. GA daily administration
  reducing the cumulative number of enhancing lesions on T1-weighted images taken at months 6 and 12: at least as effective as 20 mg s.c. GA daily administration
  reducing the level of disability as measured by EDSS Score: at least as effective as 20 mg s.c. GA daily administration
  reducing the level of disability as measured by EuroQoL (EQ5D) questionnaire: at least as effective as 20 mg s.c. GA daily administration
  reducing the level of disability as measured by the work productivity and activities impairment-General Health (WPAI-GH) questionnaire: at least as effective as 20 mg s.c. GA daily administration
  reducing the number of new T2 lesions at month 12: at least as effective as 20 mg s.c. GA daily administration
  reducing the number of new hypointense lesions on enhanced T1 scans at month 12 as compared to the baseline scan: at least as effective as 20 mg s.c. GA daily administration
  reducing the progression of MRI-monitored disease activity in the patient: at least as effective as 20 mg s.c. GA daily administration
  reducing the subject population annualized relapse rate: at least as effective as 20 mg s.c. GA daily administration
  reducing the total number of confirmed relapses during the placebo-controlled phase requiring hospitalization and/or IV steroids: at least as effective as 20 mg s.c. GA daily administration
[1]; 40 mg s.c. three times weekly compared with 20 mg s.c. GA daily administration, progression of at least 1 EDSS point sustained for at least 3 months
  reducing proportion (%) of subjects with confirmed EDSS progression during the placebo-controlled phase: at least as effective as 20 mg s.c. GA daily administration
[1]; [7]
  change from baseline to month (end of placebo-controlled phase) in EDSS Score: significantly reduces
  cumulative number of enhancing lesions on T1-weighted images taken at months 6 and 12: significantly reduces
  level of disability as measured by EDSS Score: significantly reduces
  level of disability as measured by EuroQoL (EQ5D) questionnaire: significantly reduces
  level of disability as measured by the work productivity and activities impairment-General Health (WPAI-GH) questionnaire: significantly reduces
  number of new T2 lesions at month 12: significantly reduces
  number of new hypointense lesions on enhanced T1 scans at month 12 as compared to the baseline scan: significantly reduces
  progression of MRI-monitored disease activity in the patient: significantly reduces
  proportion of relapse-free subjects during the placebo-controlled phase: significantly increases
  time to the first confirmed relapse during the placebo-controlled phase: significantly increases
  total number of confirmed relapses during the placebo-controlled phase requiring hospitalization and/or IV steroids: significantly reduces
[1]; 40 mg s.c. three times weekly vs placebo, progression of at least 1 EDSS point sustained for at least 3 months
  proportion (%) of subjects with confirmed EDSS progression during the placebo-controlled phase: significantly reduces
[2]
  total number of enhancing lesions in MS patients as measured by MRI: has been shown to reduce
[3]
  efficacy in treatment of patients who have experienced a clinically isolated syndrome (CIS): has been shown to work
[4]
  efficacy in treatment of patients who have experienced a clinically isolated syndrome (CIS): expected to work

B1: IFNβ-1b: immunomodulator (IFNβ 1b) whose efficacy in MS was shown in controlled clinical trials (protein, UniProt P01574 22-187, looked up, variant C17S)
Interferon beta: MSYNLLGFLQRSSNFQSQKLLWQLNGRLEYCLKDRMNFDIPEEIKQLQQFQKEDAALTIYEMLQNIFAIFRQDSSSTGWNETIVENLLANVYHQINHLKTVLEEKLEKEDFTRGKLMSSLHLKRYYGRILHYLKAKEYSHCAWTIVRVEILRNFYFINRLTGYLRN
[5]
  efficacy in the treatment of MS: demonstrated the efficacy
